Results on six compounds are retold here after US11472799B2, “Serine threonine kinase (AKT) degradation / disruption compounds and methods of use” (Icahn School of Medicine at Mount Sinai, priority 2018, dated 2022).

The experiment deals with AKT. Description: Western blot of AKT protein levels and downstream signaling in BT474 cells. As to conditions: Western blot (FIGS. 1, 3, 4). In kind it is cell-based, human. The protocol:
PC-3, U87MG, HCC1143, MDA-MB-231, MDA-MB-468, BT474 and MCF-7 cell lines were purchased from ATCC. Cell lines were regularly tested in the lab for mycoplasma. All cells were cultured at 37° C. and 5% CO2. PC-3, U87MG, MDA-MB-231, MCF-7 and BT474 cells were cultured in 1×DMEM (Corning, 10-013-CV) with 10% fetal bovine serum (Atlanta Biologicals S11150) and 1× Penicillin/Streptomycin. HCC1143 cells were cultured in RPMI (Corning, 10-040-CV) medium with 10% fetal bovine serum (Atlanta Biologicals S11150) and 1× Penicillin/Streptomycin. Cells were split using 0.05% or 0.25% trypsin (Corning 25-051-Cl or 25-053-Cl, respectively) before they reached full confluence and media was changed every 3-4 days. Cells were treated with compounds individually at different concentrations for 24 hrs. Cells were treated with DMSO, VHL, or PML alone as controls.
Cells were lysed in 2× sample buffer (125 mM Tris-HCl at pH 6.8, 10% βME, 2% SDS, 20% glycerol, 0.05% Bromophenol Blue, 8 M urea). Protein lysates were loaded into 4-12% Bis-Tris gels and resolved by electrophoresis. Samples were then blotted on PVDF membrane (Millipore IPVH00010) using the wet transfer technique (Invitrogen). Membranes were blocked in 5% milk-TBST for 1 hour, washed in TBST for 10 min, and incubated in primary antibody in 5% milk-TBST or 5% BSA-TBST at 4° C. for 16 h. Membranes were rinsed (3×6 min) in TBST and incubated in horseradish peroxidase-conjugated secondary antibodies in 5% milk-TBST for 1 hour and rinsed again in TBST (3×6 min). Membranes were visualized using the chemiluminescence system (Thermo 34080, 37075) on autoradiography film (Denville E3018). Primary Antibodies: R-actin (Sigma A5316), p-AKT (Ser473 CST-9721), total AKT (CST-9272), p-S6 (Ser240/244, CST-5364), p-PRAS40 (Thr246, CST-2997). Secondary Antibodies: Mouse (Thermo 31432), Rabbit (Thermo 31460).
Background: In western blotting, separated proteins are transferred to a membrane and probed.

Structures are written as SMILES.

In the case of `NC1(C(=O)N[C@@H](CCN2CCN(C(=O)CCOCCOCCOCCOCCOCCOCCOCCOCCNc3cccc4c3C(=O)N(C3CCC(=O)NC3=O)C4=O)CC2)c2ccc(Cl)cc2)CCN(c2ncnc3[nH]ccc23)CC1` (stereo partly drawn) [XF056-34, 4-amino-N-((1S)-1-(4-chlorophenyl)-3-(4-(1-((2-(2,6-dioxopiperidin-3-yl)-1,3-dioxoisoindolin-4-yl)amino)-3,6,9,12,15,18,21,24-octaoxaheptacosan-27-oyl)piperazin-1-yl)propyl)-1-(7H-pyrrolo[2,3-d]pyrimidin-4-yl)piperidine-4-carboxamide], the “suppression of AKT protein level and AKT activity” value was “effective in suppressing both AKT protein level and AKT activity”. For `C[C@@H]1C[C@@H](O)c2ncnc(N3CCN(C(=O)[C@H](CNCCC(=O)NCCCCCCNc4cccc5c4C(=O)N(C4CCC(=O)NC4=O)C5=O)c4ccc(Cl)cc4)CC3)c21` (stereo partly drawn) [XF042-168, 3-(((S)-2-(4-chlorophenyl)-3-(4-((5R,7R)-7-hydroxy-5-methyl-6,7-dihydro-5H-cyclopenta[d]pyrimidin-4-yl)piperazin-1-yl)-3-oxopropyl)amino)-N-(6-((2-(2,6-dioxopiperidin-3-yl)-1,3-dioxoisoindolin-4-yl)amino)hexyl)propanamide] the value was “effective in suppressing both AKT protein level and AKT activity”; for `Cc1ncsc1-c1ccc(CNC(=O)[C@@H]2C[C@@H](O)CN2C(=O)[C@@H](NC(=O)CCCCC(=O)N2CCN(CC[C@H](NC(=O)C3(N)CCN(c4ncnc5[nH]ccc45)CC3)c3ccc(Cl)cc3)CC2)C(C)(C)C)cc1` [XF050-16, 4-amino-N-((S)-1-(4-chlorophenyl)-3-(4-(6-(((S)-1-((2S,4R)-4-hydroxy-2-((4-(4-methylthiazol-5-yl)benzyl)carbamoyl)pyrrolidin-1-yl)-3,3-dimethyl-1-oxobutan-2-yl)amino)-6-oxohexanoyl)piperazin-1-yl)propyl)-1-(7H-pyrrolo[2,3-d]pyrimidin-4-yl)piperidine-4-carboxamide], “effective in suppressing both AKT protein level and AKT activity”; for `C[C@@H]1C[C@@H](O)c2ncnc(N3CCN(C(=O)[C@H](CNCCC(=O)NCCCCCCCCCc4cccc5c4C(=O)N(C4CCC(=O)NC4=O)C5=O)c4ccc(Cl)cc4)CC3)c21` (stereo partly drawn) [XF056-93, 3-(((S)-2-(4-chlorophenyl)-3-(4-((5R,7R)-7-hydroxy-5-methyl-6,7-dihydro-5H-cyclopenta[d]pyrimidin-4-yl)piperazin-1-yl)-3-oxopropyl)amino)-N-(9-(2-(2,6-dioxopiperidin-3-yl)-1,3-dioxoisoindolin-4-yl)nonyl)propanamide], “effective in suppressing both AKT protein level and AKT activity”. In the case of `Cc1ncsc1-c1ccc(CNC(=O)[C@@H]2C[C@@H](O)CN2C(=O)[C@@H](NC(=O)CCCCCC(=O)N2CCN(CC[C@H](NC(=O)C3(N)CCN(c4ncnc5[nH]ccc45)CC3)c3ccc(Cl)cc3)CC2)C(C)(C)C)cc1` [XF050-17, 4-amino-N-((S)-1-(4-chlorophenyl)-3-(4-(7-(((S)-1-((2S,4R)-4-hydroxy-2-((4-(4-methylthiazol-5-yl)benzyl)carbamoyl)pyrrolidin-1-yl)-3,3-dimethyl-1-oxobutan-2-yl)amino)-7-oxoheptanoyl)piperazin-1-yl)propyl)-1-(7H-pyrrolo[2,3-d]pyrimidin-4-yl)piperidine-4-carboxamide], the “suppression of AKT protein level and AKT activity” value was “effective in suppressing both AKT protein level and AKT activity”. For `NC1(C(=O)N[C@@H](CCN2CCN(C(=O)CCOCCOCCOCCNc3cccc4c3C(=O)N(C3CCC(=O)NC3=O)C4=O)CC2)c2ccc(Cl)cc2)CCN(c2ncnc3[nH]ccc23)CC1` (stereo partly drawn) [XF050-31, 4-amino-N-((1S)-1-(4-chlorophenyl)-3-(4-(3-(2-(2-(2-((2-(2,6-dioxopiperidin-3-yl)-1,3-dioxoisoindolin-4-yl)amino)ethoxy)ethoxy)ethoxy)propanoyl)piperazin-1-yl)propyl)-1-(7H-pyrrolo[2,3-d]pyrimidin-4-yl)piperidine-4-carboxamide] the value was “effective in suppressing both AKT protein level and AKT activity”.
